# Test results published in patent US20030152500A1, “Rotor-stator apparatus and process for the formation of particles” (priority 2001, published 2003).
# Tests used:
# [1] = Primary crystal/particle size by image analysis; type: physicochemical; conditions: Example 8: 15% (w/w) glycine 14 mL/min, ethanol 190 mL/min, anhydrous ethanol quench
# Protocol: The same procedure as in Example 7 was used, except the feed rate of the 15% (w/w) aqueous glycine solution was 14 mL/min and the feed rate of the anhydrous ethanol antisolvent was 190 mL/min. A quenching solution of anhydrous ethanol (>99%) was used.
# Salicylic acid […] was dissolved in anhydrous ethanol (>99%) at a concentration of 24.8% (w/w). This solution was fed to the same apparatus as configured in Example 1. Water was co-fed as the antisolvent.
# [2] = Crystal size of rotor-stator exit stream observed under videomicroscope
structure (smiles),measurement,setting,value
"NCC(=O)O [glycine, Glycine]",mean size of primary crystals,[1],4.4 μm
same,mean size of crystals,"[2]; Example 1: 5% (w/w) aqueous glycine 190 mL/min, ethanol 190 mL/min, 10,000 rpm, quench 50% water 50% ethanol",25 μm
same,mean size of crystals,"[2]; Example 3: as Example 1, rotor-stator speed 5,000 rpm",40 μm
same,mean size of crystals,"[2]; Example 4: as Example 1, 15% (w/w) glycine solution",40 μm
same,mean size of crystals,"[2]; Example 5: as Example 1, 15% (w/w) glycine, 5,000 rpm",70 μm
same,mean length of crystals,"[2]; Example 6: as Example 1, 15% (w/w) glycine, 0 rpm",300 μm
same,mean size of crystals,"[2]; Example 7: 15% (w/w) glycine 21 mL/min, ethanol 190 mL/min",6 μm
